Source: patent publication US7799907B2, “Method for the preparation of 2′-deoxy-2′,2′-difluorocytidine” (Hanmi Pharm. Co., Ltd, priority 2004, dated 2010)

Experiment: Stability of moisture content of the hemihydrate and dihydrate forms on storage
Type: physicochemical
Conditions: for stability for the moisture content changes: under the conditions shown in Table 1
[1] = 40° C. under 75% relative humidity, 1 day
[2] = 40° C. under 75% relative humidity, 7 days
[3] = 40° C. under 75% relative humidity, 14 days

Molecule | Moisture content (%) [1] [%] | Moisture content (%) [2] [%] | Moisture content (%) [3] [%] | Moisture content (%) (Air, 1 day) | Moisture content (%) (Air, 7 days) | Moisture content (%) (Air, 14 days) | stability for the moisture content changes
2′-Deoxy-2′,2′-difluorocytidine hemihydrate | 3.7 | 3.8 | 3.8 | 3.6 | 3.7 | 3.4 | stable
Nc1ccn([C@@H]2O[C@H](CO)[C@@H](O)C2(F)F)c(=O)n1.O.O [Dihydrate, 2′-Deoxy-2′,2′-difluorocytidine dihydrate] | 12.1 | 11.9 | 11.7 | 11.6 | 11.8 | 11.7 | stable
